Consider two compounds from patent US11638716B2, “Compounds, compositions, and methods for the treatment of disease” (F-star Therapeutics, Inc., priority 2017, dated 2023).

What all share (type): cell-based
In one experiment the test system is NF-κβ. Kind of experiment: In vitro induction of NF-κβ in THP1 dual cells (SEAP reporter). The protocol:
(§1) Example 2. In Vitro Induction of IRF and NF-κβ in THP1 Cells
(§2) THP1 dual cells grown in complete media were treated with various concentrations of a compound of the present disclosure or DMSO control. Dual cells carry both secreted embryonic alkaline phosphatase (SEAP) reporter gene under the control of an IFN-β minimal promoter fused to five copies of the NF-kB consensus transcriptional response element to measure NF-kB activity and Lucia reporter gene under the control of an ISG54 minimal promoter to measure IRF activity. After 20 h incubation, IRF activity was assessed using QUANTI-luc to measure levels of Lucia and NF-kB activity was determined by measure SEAP levels at 620-655 nm. % induction was calculated from fold change in luminescence/absorbance compared to DMSO treated sample. […] EC50 values were generated by curve fit in Xlfit.
(§3) Cells grown in complete media were treated with various concentrations of a compound of the disclosure or DMSO control. Dual cells carry both secreted embryonic alkaline phosphatase (SEAP) reporter gene under the control of an IFN-β minimal promoter fused to five copies of the NF-kB consensus transcriptional response element to measure NF-kB activity and Lucia reporter gene under the control of an ISG54 minimal promoter to measure IRF activity. After 20 h incubation, IRF activity was assessed using QUANTI-luc to measure levels of Lucia and NF-kB activity was determined by measure SEAP levels at 620-655 nm. % induction was calculated from fold change in luminescence/absorbance compared to DMSO treated sample. EC50 values are generated by curve fit in Xlfit.

The test system of another experiment is IRF. Kind of experiment: In vitro induction of IRF in THP1 dual cells (Lucia reporter, ISG54 promoter). The protocol: as §1, §2, §3
Another experiment has as its system STING KO cells. The experiment is described as follows: IRF and NF-kB reporter activity in STING KO cells. Particulars: 20 hours. The protocol:
FIG. 21 depicts cells stably expressing both or either one of the reporters to measure IRF and NF-kB activity were treated with a range of concentrations of compound 1 or DMSO control for 20 hours. IRF activity was assessed using QUANTI-luc to measure levels of Lucia and NF-kB activity was determined by measure SEAP levels at 620-655 nm. % induction was calculated from fold change in luminescence/absorbance compared to DMSO treated sample. EC50 values are generated by curve fit in Xlfit.
(§4) FIG. 22 depicts cells stably expressing both or either one of the reporters to measure IRF and NF-kB activity were treated with a range of concentrations of compound 2 or DMSO control for 20 hours. IRF activity was assessed using QUANTI-luc to measure levels of Lucia and NF-kB activity was determined by measure SEAP levels at 620-655 nm. % induction was calculated from fold change in luminescence/absorbance compared to DMSO treated sample. EC50 values are generated by curve fit in Xlfit.
(§5) FIG. 24 depicts cells stably expressing both or either one of the reporters to measure IRF and NF-kB activity were treated with a range of concentrations of compound 3 or DMSO control for 20 hours. IRF activity was assessed using QUANTI-luc to measure levels of Lucia and NF-kB activity was determined by measure SEAP levels at 620-655 nm. % induction was calculated from fold change in luminescence/absorbance compared to DMSO treated sample. EC50 values are generated by curve fit in Xlfit.
(§6) FIG. 27 depicts cells stably expressing both or either one of the reporters to measure IRF and NF-kB activity were treated with a range of concentrations of compound 4 or DMSO control for 20 hours. IRF activity was assessed using QUANTI-luc to measure levels of Lucia and NF-kB activity was determined by measure SEAP levels at 620-655 nm. % induction was calculated from fold change in luminescence/absorbance compared to DMSO treated sample. EC50 values are generated by curve fit in Xlfit.
as §3

Experiment [1] has as its system RAW-Lucia-ISG-STING KO cells. Kind of experiment: IRF-type I IFN secreted luciferase in RAW-Lucia-ISG-STING KO cells. Particulars: compound alone, 19 hours. The method, then:
FIG. 4 depicts RAW-Lucia-ISG-WT and RAW-Lucia-ISG-STING KO cells were stimulated with compound 2 or compound 4, alone for 19 hours. Activity of secreted luciferase (IRF-type I IFN activity) in cell culture supernatant was measured using Invivogen's Quanti-luc. Data is shown as fold induction over DMSO treated cells (mean±standard deviation of triplicate wells per stimulant). EC50 values were calculated using XLfit.

The subject of experiment [2] is mouse bone marrow derived dendritic cells (DCs) and macrophages. The experiment is described as follows: ISG gene expression (Taqman) in mouse bone marrow derived dendritic cells and macrophages. Particulars: 20 hours. The method, then:
FIG. 23 depicts cryopreserved mouse bone marrow derived dendritic cells (DCs) and macrophages treated with a range of concentrations of compound 2 or DMSO control for 20 hours. Cell pellets were harvested to collect total RNA. The gene expression levels of ISGs were measured by Taqman Assays.

In the next experiment the target is T1, wt-mSTING (Mus musculus, UniProt Q3TBT3).
T1 construct: endogenous in cells
T1 sequence (Q3TBT3 1-378): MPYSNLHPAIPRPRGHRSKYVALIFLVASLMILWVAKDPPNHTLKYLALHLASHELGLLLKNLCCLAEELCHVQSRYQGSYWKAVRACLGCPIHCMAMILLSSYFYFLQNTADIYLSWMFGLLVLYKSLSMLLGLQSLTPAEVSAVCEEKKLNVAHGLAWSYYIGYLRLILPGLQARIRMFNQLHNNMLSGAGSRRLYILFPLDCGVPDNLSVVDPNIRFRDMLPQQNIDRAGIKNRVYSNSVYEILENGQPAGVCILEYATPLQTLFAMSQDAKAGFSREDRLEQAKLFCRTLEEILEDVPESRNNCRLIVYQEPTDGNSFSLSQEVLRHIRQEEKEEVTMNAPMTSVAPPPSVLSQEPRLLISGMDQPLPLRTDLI
The experiment is described as follows: IRF/NF-kB reporter cells, wt-mSTING. Particulars: 20 hours. The method, then: as §4, §5, §6
(§7) Cells grown in complete media were treated with various concentrations of a compound of the disclosure or DMSO control. […] After 20 h incubation, IRF activity was assessed using QUANTI-luc to measure levels of Lucia and NF-kB activity was determined by measure SEAP levels at 620-655 nm. % induction was calculated from fold change in luminescence/absorbance compared to DMSO treated sample. […]

Experiment [3] addresses T2, R71H-G230A-R293Q (HAQ) variant of hSTING (Homo sapiens, UniProt Q86WV6, G230A/H232R/R293Q/R71H).
T2 construct: THP1-Dual-WT cells express STING-HAQ variant; endogenous in cells; host or cells: THP1-Dual-WT cells
The experiment is described as follows: IRF/NF-kB reporter cells, STING HAQ variant. Conditions: 20 hours. The method, then:
as §4, §5, §6, §7

A further experiment has as its target T3, wild type STING (Homo sapiens, UniProt Q86WV6, H232R).
T3 construct: expressed in transfected cells; host or cells: THP1-Dual-KI-STING-R232 (made from THP-Dual-STING KO cells)
Kind of experiment: IRF/NF-kB reporter cells, wild type STING. Particulars: 20 hours. The method, then:
as §4, §5, §6, §7

[4] abbreviates: Homo sapiens, THP-1, 20 h incubation.

Each structure is given as a SMILES string.

T2 sequence (Q86WV6 whole entry R71H/G230A/H232R/R293Q): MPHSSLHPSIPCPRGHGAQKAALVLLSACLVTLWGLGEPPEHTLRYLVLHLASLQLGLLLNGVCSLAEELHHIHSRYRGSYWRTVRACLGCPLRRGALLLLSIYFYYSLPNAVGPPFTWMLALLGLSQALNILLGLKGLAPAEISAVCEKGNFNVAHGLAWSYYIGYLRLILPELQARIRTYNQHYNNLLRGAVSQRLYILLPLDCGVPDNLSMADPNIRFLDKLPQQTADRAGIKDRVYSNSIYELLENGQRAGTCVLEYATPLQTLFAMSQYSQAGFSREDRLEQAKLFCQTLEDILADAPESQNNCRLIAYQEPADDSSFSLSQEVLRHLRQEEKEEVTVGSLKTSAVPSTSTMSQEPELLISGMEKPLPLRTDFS
T3 sequence (Q86WV6 whole entry H232R): as the sequence (Q86WV6 whole entry R71H/G230A/H232R/R293Q) above, with H71R, A230G, Q293R counted along it

As usually defined, the EC50 is the midpoint of the concentration-response curve. On to `Nc1ncnc2c1ncn2[C@@H]1O[C@@H]2COP(=O)(O)O[C@H]3[C@@H](F)[C@H](n4ccc(=O)[nH]c4=O)O[C@@H]3COP(=O)(O)O[C@@H]1[C@@H]2F` [Compound 1], for which the EC50 in the experiment on NF-κβ (setting [4]) is more than 2 µM. For the same compound, the EC50 in the experiment on IRF (setting [4]) was more than 2 µM. Besides, in the experiment with STING KO cells, the “IRF activity in STING KO cells” value is recorded as “did not induce”, the “NF-κβ in STING KO cells” value is “did not induce” and the “STING dependence of activity” value is on record as “possess STING dependent activity”.

Consider `CCCCCCCCCCOc1ccc(C(=O)Oc2ccc(CSP3(=O)OC[C@H]4O[C@@H](n5cnc6c(N)ncnc65)[C@H](OP(=O)(O)OC[C@H]5O[C@@H](n6ccc(=O)[nH]c6=O)[C@H](F)[C@@H]5O3)[C@@H]4F)cc2)cc1` (some centres unmarked) [Compound 2], for which the “IRF activity in STING KO cells” value was “Neither compound induced IRF activity” in experiment [1] and “did not induce” with STING KO cells. Also, the EC50 is 1 to 2 µM in the experiment with NF-κβ (20 h incubation) and less than 0.05 µM in the experiment on IRF (20 h incubation). In addition, in experiment [2], the ISG expression entry is on record as “induces ISG expression”. Also, at wt-mSTING, the “activity against wt-mSTING” value is on record as “possess activity”. Moreover, the “activity against R71H-G230A-R293Q (HAQ) variant of hSTING” value in experiment [3] was “possess activity”. Also, the “activity against wild type STING” value at wild type STING is recorded as “possess activity”. In addition, in the experiment with STING KO cells, the “NF-κβ in STING KO cells” value is reported as “did not induce”.
